From patent publication US6166085A, “Method of producing analgesia” (priority 1996, dated 2000)
Where two headings read alike, the source gives them in different places.

How the values were obtained:
mechanical allodynia = test: Mechanical allodynia in rat model of peripheral neuropathy (L5/L6 spinal nerve ligation), intrathecal, Example 2; type: in vivo, Sprague-Dawley rats; conditions: for effect on mechanical allodynia (50% response threshold), 0.6 μmol: 0.6 μmol intrathecal
Procedure: Experiments carried out in support of the present invention were performed in a rat model of peripheral neuropathy detailed in Example 2. Briefly, in the model used, rats are subjected to a surgical procedure, described by Kim and Chung (1992), designed to reproducibly injure peripheral nerves (spinal nerves L5 and L6). These rats develop a hyperesthetic state, which can be measured using one or more paradigms known in the art. Here, allodynia was measured by stimulation of neuropathic rat hindlimb using wire hairs having graded degrees of stiffness.
[…]. Test solutions at pH 6.58 were administered intrathecally as described above. Mechanical allodynia was measured by pressing nylon filaments of varying diameters against the paw. Data are expressed in terms of 50% response threshold, which is the median buckling weight required to evoke paw withdrawal; the lower the stimulus level, the more severe the allodynia.
Male Sprague-Dawley rats (200-350 gm) were prepared with chronic lumbar intrathecal catheters inserted under halothane anesthesia (Yaksh and Rudy). Animals were placed in a prone position and the left paraspinal muscles were separated from the spinous processes at the L4 -S2 levels, as described by Kim et al. The left L5 and L6 nerve roots were exposed and tightly ligated with 6-0 surgical silk suture. The rats were allowed to recover from anesthesia. Allodynia was typically observed to occur beginning 1-2 days post surgery and continuing for as long as 45 days. For testing, animals were placed in plastic cubicles with open wire mesh bottoms. Compound dissolved in preservative-free saline solution was administered in a volume of 10 μl through the intrathecal catheter, followed by 10 μl saline to flush the catheter line. Animals were tested for allodynia at various time points after drug treatment, as described below.
To assess the threshold of a non-noxious stimulus required to produce a left hind paw withdrawal (allodynia), Von Frey hairs (ranging from 0.4-15 grams), were systematically applied to the surgically treated hind paw. Failure to evoke a response was cause to test the next stiffer hair. Evocation of a brisk withdrawal response was cause to test the next lower stimulus intensity. This paradigm was repeated according to a statistical method (Dixon, 1976) to define the 50% response threshold.
Data in FIG. 6 are expressed in terms of 50% response threshold, which is the median buckling weight required to evoke paw withdrawal; the lower the stimulus level, the more severe the allodynia. Allodynia thresholds, measured 30 minutes after injection, were plotted against dosage. Each point represents a value for a single animal.

allodynia [1] = conditions: Chaplan et al. 1995, IV or IT, cited from earlier work
[2] = Metabolism of 14C lidocaine after IV administration, HPLC profile; type: in vivo, Harlan Sprague-Dawley and Dark Agouti rats; conditions: 14C lidocaine IV, N=2
allodynia [3] = test: Susceptibility of rat strains to anti-allodynia effects of lidocaine; type: in vivo, Sprague-Dawley versus Dark Agouti rats; conditions: FIG. 11 legend

Row | SMILES | effect on mechanical allodynia (50% response threshold), 0.3 μmol (mechanical allodynia; 0.3 μmol intrathecal, pH 6.58) | effect on mechanical allodynia (50% response threshold), 0.6 μmol (mechanical allodynia; pH 6.58) | time of peak elevation of response (blockade of allodynia) (mechanical allodynia; intrathecal, single bolus, n=6 animals/treatment) [min] | elevation of threshold response (mechanical allodynia; intrathecal, varying doses, n=6 animals/treatment) | possible maximum duration of effect of a single bolus injection (mechanical allodynia; intrathecal, "possibly up to") | duration of effect of a single bolus injection (mechanical allodynia; intrathecal, lasting in excess of) [h] | anti-allodynic effect of lidocaine (allodynia [1]) | anti-allodynic effect of lidocaine (allodynia [1]; listed as Lidocaine) | glucuronidated 3-OH MEGX in elution profile, DA rats ([2]; Dark Agouti) | glucuronidated 3-OH MEGX in elution profile, SD rats ([2]; Sprague-Dawley) | susceptibility to anti-allodynia effects of lidocaine, Dark Agouti rats (allodynia [3]) | susceptibility to anti-allodynia effects of lidocaine, Sprague-Dawley rats (allodynia [3])
1 | CCNCC(=O)Nc1c(C)ccc(O)c1C [3-hydroxy MEGX, 2-(ethylamino)-N-(3-hydroxy-2,6-dimethylphenyl) acetamide] | significant analgesic effects | significant analgesic effects | 30 to 60 | resulted in elevation of threshold response | up to 20 hours | > 3 |  |  |  |  |  | 
2 | CCN(CC)CC(=O)Nc1c(C)cccc1C [lidocaine] |  | did not block mechanical allodynia |  |  |  |  | no anti-allodynic effect after termination of motor block | effective against allodynia by the intravenous, but not the intrathecal/regional routes | absent from the profile of DA rats | a large peak in the elution profile of SD rats, found to consist of a glucuronidated form of 3-OH MEGX | not similarly susceptible | susceptible to anti-allodynia effects of Lidocaine
